Measured values as given in the NIST ThermoML archive (doi:10.1021/je5010214).
± gives the expanded uncertainty stated by the source.

Conditions: Liquid, Vibrating tube method

CCCCCCC [heptane]
Conditions	mass density [kg/m3]
323.15 K, 34081 kPa	690.434 ± 0.95
323.15 K, 35113 kPa	691.624 ± 0.95
323.15 K, 37953 kPa	693.659 ± 0.97
323.15 K, 42011 kPa	696.516 ± 0.99
323.15 K, 48025 kPa	700.814 ± 1
323.15 K, 49934 kPa	702.105 ± 1
323.15 K, 52114 kPa	703.681 ± 1.1
323.15 K, 54964 kPa	705.509 ± 1.1
323.15 K, 58045 kPa	707.475 ± 1.1
323.15 K, 60050 kPa	708.827 ± 1.1
323.15 K, 62131 kPa	710.008 ± 1.1
323.15 K, 64999 kPa	711.842 ± 1.1
323.16 K, 920.7 kPa	659.343 ± 0.82
323.16 K, 27958 kPa	685.975 ± 0.92
323.16 K, 30055 kPa	687.083 ± 0.93
323.16 K, 33067 kPa	689.946 ± 0.94
323.16 K, 40047 kPa	695.097 ± 0.98
323.16 K, 44937 kPa	698.783 ± 1
323.16 K, 66131 kPa	712.551 ± 1.1
328.15 K, 100.8 kPa	653.868 ± 0.81
328.15 K, 289.9 kPa	654.182 ± 0.81
328.15 K, 897.5 kPa	654.815 ± 0.82
328.15 K, 994.1 kPa	655.012 ± 0.82
328.15 K, 1988.8 kPa	656.162 ± 0.82
328.15 K, 2996.7 kPa	657.408 ± 0.82
328.15 K, 5013.4 kPa	659.794 ± 0.83
328.15 K, 6974.9 kPa	662.023 ± 0.83
328.15 K, 9017 kPa	664.204 ± 0.84
328.15 K, 10040 kPa	665.257 ± 0.84
328.15 K, 24924 kPa	679.489 ± 0.91
328.15 K, 27979 kPa	682.036 ± 0.92
328.15 K, 29958 kPa	683.395 ± 0.93
328.15 K, 32060 kPa	685.102 ± 0.94
328.15 K, 33066 kPa	685.969 ± 0.95
328.15 K, 33107 kPa	685.992 ± 0.95
328.15 K, 34013 kPa	687.01 ± 0.95
328.15 K, 35030 kPa	687.796 ± 0.96
328.15 K, 38010 kPa	690.025 ± 0.97
328.15 K, 39969 kPa	691.415 ± 0.98
328.15 K, 41959 kPa	692.865 ± 1
328.15 K, 44953 kPa	695.094 ± 1
328.15 K, 47978 kPa	697.371 ± 1
328.15 K, 49926 kPa	698.804 ± 1
328.15 K, 51997 kPa	700.259 ± 1.1
328.15 K, 54947 kPa	702.284 ± 1.1
328.15 K, 57939 kPa	704.221 ± 1.1
328.15 K, 59991 kPa	705.64 ± 1.1
328.15 K, 61982 kPa	707.057 ± 1.1
328.15 K, 65032 kPa	708.835 ± 1.1
328.15 K, 66046 kPa	709.499 ± 1.1
328.16 K, 501 kPa	654.211 ± 0.82
328.16 K, 12210 kPa	667.562 ± 0.85
328.16 K, 15055 kPa	670.204 ± 0.86
328.16 K, 18061 kPa	673.216 ± 0.88
328.16 K, 20279 kPa	675.247 ± 0.89
328.16 K, 22013 kPa	676.775 ± 0.89
333.15 K, 100.4 kPa	649.302 ± 0.81
333.15 K, 532.6 kPa	649.653 ± 0.82
333.15 K, 897.8 kPa	650.259 ± 0.82
333.15 K, 1987.2 kPa	651.687 ± 0.82
333.15 K, 3023.4 kPa	653.063 ± 0.82
333.15 K, 4997.4 kPa	655.338 ± 0.83
333.15 K, 7002.4 kPa	657.844 ± 0.83
333.15 K, 9032 kPa	660.047 ± 0.84
333.15 K, 10210 kPa	661.268 ± 0.84
333.15 K, 15008 kPa	666.206 ± 0.86
333.15 K, 22034 kPa	672.882 ± 0.89
333.15 K, 28040 kPa	678.188 ± 0.92
333.15 K, 30016 kPa	679.579 ± 0.93
333.15 K, 32067 kPa	681.185 ± 0.94
333.15 K, 32977 kPa	681.946 ± 0.95
333.15 K, 34086 kPa	683.474 ± 0.96
333.15 K, 35075 kPa	684.235 ± 0.96
333.15 K, 37894 kPa	686.324 ± 0.98
333.15 K, 40111 kPa	687.848 ± 0.99
333.15 K, 41947 kPa	689.191 ± 1
333.15 K, 44974 kPa	691.567 ± 1
333.15 K, 47936 kPa	693.899 ± 1
333.15 K, 49920 kPa	695.372 ± 1
333.15 K, 51953 kPa	696.893 ± 1.1
333.15 K, 54876 kPa	699.008 ± 1.1
333.15 K, 58057 kPa	700.988 ± 1.1
333.15 K, 59993 kPa	702.482 ± 1.1
333.15 K, 62049 kPa	703.927 ± 1.1
333.15 K, 64970 kPa	705.65 ± 1.1
333.15 K, 66005 kPa	706.481 ± 1.1
333.16 K, 303.5 kPa	649.622 ± 0.81
333.16 K, 1003 kPa	650.554 ± 0.82
333.16 K, 12011 kPa	663.322 ± 0.85
333.16 K, 17992 kPa	669.217 ± 0.88
333.16 K, 20036 kPa	671.108 ± 0.89
333.16 K, 25027 kPa	675.678 ± 0.91
333.16 K, 33073 kPa	682.004 ± 0.95
338.15 K, 100.4 kPa	644.915 ± 0.81
338.15 K, 309.8 kPa	645.161 ± 0.82
338.15 K, 561.6 kPa	645.341 ± 0.82
338.15 K, 898.5 kPa	645.924 ± 0.82
338.15 K, 1014.1 kPa	646.212 ± 0.82
338.15 K, 2936.1 kPa	648.694 ± 0.82
338.15 K, 5018.6 kPa	651.205 ± 0.83
338.15 K, 10034 kPa	657.126 ± 0.84
338.15 K, 14885 kPa	662.203 ± 0.86
338.15 K, 17956 kPa	665.481 ± 0.88
338.15 K, 19927 kPa	667.369 ± 0.89
338.15 K, 22041 kPa	669.319 ± 0.9
338.15 K, 25026 kPa	672.169 ± 0.91
338.15 K, 29994 kPa	676.134 ± 0.94
338.15 K, 32882 kPa	678.515 ± 0.95
338.15 K, 33937 kPa	679.921 ± 0.96
338.15 K, 35012 kPa	680.879 ± 0.96
338.15 K, 39987 kPa	684.582 ± 0.99
338.15 K, 41990 kPa	686.092 ± 1
338.15 K, 44978 kPa	688.463 ± 1
338.15 K, 47971 kPa	690.744 ± 1
338.15 K, 49999 kPa	692.38 ± 1.1
338.15 K, 52127 kPa	693.976 ± 1.1
338.15 K, 57940 kPa	697.82 ± 1.1
338.15 K, 60014 kPa	699.459 ± 1.1
338.15 K, 65012 kPa	702.688 ± 1.1
338.15 K, 66057 kPa	703.55 ± 1.1
338.16 K, 2000.2 kPa	647.409 ± 0.82
338.16 K, 6917.3 kPa	653.552 ± 0.83
338.16 K, 9046.9 kPa	656.063 ± 0.84
338.16 K, 11959 kPa	659.361 ± 0.85
338.16 K, 27976 kPa	674.704 ± 0.93
338.16 K, 31949 kPa	677.899 ± 0.95
338.16 K, 32882 kPa	678.499 ± 0.95
338.16 K, 37962 kPa	683.24 ± 0.98
338.16 K, 54992 kPa	696.066 ± 1.1
338.16 K, 62074 kPa	700.918 ± 1.1
343.15 K, 105.1 kPa	640.758 ± 0.82
343.15 K, 297.3 kPa	640.918 ± 0.82
343.15 K, 520.3 kPa	641.218 ± 0.82
343.15 K, 911.7 kPa	641.765 ± 0.82
343.15 K, 1017.7 kPa	641.938 ± 0.82
343.15 K, 1994.6 kPa	643.242 ± 0.82
343.15 K, 2968.3 kPa	644.553 ± 0.82
343.15 K, 4994.8 kPa	647.152 ± 0.83
343.15 K, 6976.6 kPa	649.726 ± 0.83
343.15 K, 9002.6 kPa	652.141 ± 0.84
343.15 K, 10060 kPa	653.267 ± 0.85
343.15 K, 12024 kPa	655.625 ± 0.85
343.15 K, 14928 kPa	658.769 ± 0.87
343.15 K, 17975 kPa	661.975 ± 0.88
343.15 K, 19985 kPa	664 ± 0.89
343.15 K, 22033 kPa	666.001 ± 0.9
343.15 K, 25090 kPa	668.93 ± 0.91
343.15 K, 28045 kPa	671.724 ± 0.93
343.15 K, 30082 kPa	673.379 ± 0.94
343.15 K, 32170 kPa	675.296 ± 0.95
343.15 K, 33053 kPa	676.043 ± 0.96
343.15 K, 33097 kPa	676.076 ± 0.96
343.15 K, 35030 kPa	677.808 ± 0.97
343.15 K, 37943 kPa	680.185 ± 0.98
343.15 K, 40012 kPa	681.817 ± 0.99
343.15 K, 41972 kPa	683.353 ± 1
343.15 K, 44927 kPa	685.751 ± 1
